According to patent US20100222349A1, “QUINOLINE DERIVATIVES USED TO TREAT INFLAMMATORY AND ALLERGIC DISEASES” (Glaxo Group Limited, priority 2007, published 2010):

Assays:
histamine H3 receptor = molecular target: T1, histamine H3 receptor (Homo sapiens, UniProt Q9Y5N1); assay: Histamine H3 functional antagonist assay (GTPγS, membranes); type: biochemical; settings: CHO K1 membranes, [35S]-GTPγS, histamine at EC80; read-out: average pKi (pKb) at H3 (converted)
T1 construct: expressed in transfected cells; host or cells: CHO K1 cells with pSwitch/pGeneH3 (GeneSwitch, mifepristone-induced), clone 3H3; membrane preparation
Description: The histamine H3 cDNA is isolated from its holding vector, pcDNA3.1 TOPO (InVitrogen), by restriction digestion of plasmid DNA with the enzymes BamH1 and Not-1 and is ligated into the inducible expression vector pGene (InVitrogen) digested with the same enzymes. The GeneSwitchTM system (a system where in transgene expression is switched off in the absence of an inducer and switched on in the presence of an inducer) is performed as described in U.S. Pat. Nos. 5,364,791; 5,874,534; and 5,935,934. Ligated DNA is transformed into competent DH5α E. coli host bacterial cells and is plated onto Luria Broth (LB) agar containing ZeocinTM (an antibiotic which allows the selection of cells expressing the sh ble gene which is present on pGene and pSwitch) at 50 μgml^-1. Colonies containing the re-ligated plasmid are identified by restriction analysis. DNA for transfection into mammalian cells is prepared from 250 ml cultures of the host bacterium containing the […]3 plasmid and is isolated using a DNA preparation kit (Qiagen Midi-Prep) as per manufacturers guidelines (Qiagen). CHO K1 cells previously transfected with the pSwitch regulatory plasmid (InVitrogen) are seeded at 2×10^6 cells per T75 flask in Complete Medium, containing Hams F12 (GIBCOBRL, Life Technologies) medium supplemented with 10% v/v dialysed foetal bovine serum, L-glutamine, and hygromycin (100 μgml^-1), 24 h prior to use. Plasmid DNA is transfected into the cells using Lipofectamine plus according to the manufacturer's guidelines (InVitrogen). 48 h post transfection, cells are placed into complete medium supplemented with 500 μgml^-1 ZeocinTM. 10-14 days post selection, 10 nM Mifepristone (InVitrogen) is added to the culture medium to induce the expression of the receptor. 18 h post induction, cells are detached from the flask using ethylenediamine tetra-acetic acid (EDTA; 1:5000; InVitrogen), following several washes with PBS, pH 7.4 and are resuspended in Sorting Medium containing Minimum Essential Medium (MEM), without phenol red, and are supplemented with Earles salts and 3% Foetal Clone II (Hyclone). Approximately 1×10^7 cells are examined for receptor expression by staining with a rabbit polyclonal antibody, 4a, raised against the N-terminal domain of the histamine H3 receptor, are incubated on ice for 60 min, followed by two washes in sorting medium. Receptor bound antibody is detected by incubation of the cells for 60 min on ice with a goat anti rabbit antibody, conjugated with Alexa 488 fluorescence marker (Molecular Probes). Following two further washes with Sorting Medium, cells are filtered through a 50 μm FilconTM (BD Biosciences) and then are analysed on a FACS Vantage SE Flow Cytometer fitted with an Automatic Cell Deposition Unit. Control cells are non-induced cells treated in an analogous manner. Positively stained cells are sorted as single cells into 96-well plates, containing Complete Medium containing 500 μgml^-1 ZeocinTM and are allowed to expand before reanalysis for receptor expression via antibody and ligand binding studies. One clone, 3H3, is selected for membrane preparation. All steps of the protocol are carried out at 4° C. and with pre-cooled reagents. The cell pellet is resuspended in 10 volumes of homogenisation buffer (50 mM N-2-hydroxyethylpiperazine-N'-2-ethanesulfonic acid (HEPES), 1 mM ethylenediamine tetra-acetic acid (EDTA), pH 7.4 with KOH, supplemented with 10^-6 M leupeptin (acetyl-leucyl-leucyl-arginal; Sigma L2884), 25 μgml^-1 bacitracin (Sigma B0125), 1 mM phenylmethylsulfonyl fluoride (PMSF) and 2×10^-6 M pepstain A (Sigma)). The cells are then homogenised by 2×15 sec bursts in a 1 L glass Waring blender, followed by centrifugation at 500 g for 20 min. The supernatant is then spun at 48,000 g for 30 min. The pellet is resuspended in homogenisation buffer (4× the volume of the original cell pellet) by vortexing for 5 sec, followed by homogenisation in a Dounce homogeniser (10-15 strokes). […]

human H1 receptor = molecular target: T2, human H1 receptor (Homo sapiens, UniProt P35367); assay: Histamine H1 functional antagonist assay: determination of functional pKi values (FLIPR); type: cell-based; settings: CHO cells expressing human H1 receptor, histamine at EC80, read-out: average pKi (pKb) at H1 (converted)
T2 construct: expressed in transfected cells
Description: The human H1 receptor is cloned using known procedures described in the literature [Biochem. Biophys. Res. Commun., 201(2):894 (1994)]. Chinese hamster ovary (CHO) cells stably expressing the human H1 receptor are generated according to known procedures described in the literature [Br. J. Pharmacol., 117(6):1071 (1996)]. The histamine H1 cell line is seeded into non-coated black-walled clear bottom 384-well tissue culture plates in alpha minimum essential medium (Gibco/Invitrogen, cat no. 22561-021), supplemented with 10′)/0 dialysed foetal calf serum (Gibco/Invitrogen cat no. 12480-021) and 2 mM L-glutamine (Gibco/Invitrogen cat no 25030-024) and is maintained overnight at 5% CO2, 37° C. Excess medium is removed from each well to leave 10 μl. 30 μl loading dye (250 μM Brilliant Black, 2 μM Fluo-4 diluted in Tyrodes buffer+probenecid (145 mM NaCl, 2.5 mM KCl, 10 mM HEPES, 10 mM D-glucose, 1.2 mM MgCl2, 1.5 mM CaCl2, 2.5 mM probenecid, pH adjusted to 7.40 with NaOH 1.0 M)) is added to each well and the plates are incubated for 60 min at 5% CO2, 37° C. 10 μl of test compound, diluted to the required concentration in Tyrodes buffer+probenecid (or 10 μl Tyrodes buffer+probenecid as a control) is added to each well and the plate is incubated for 30 min at 37° C., 5% CO2. The plates are then placed into a FLIPR™(Molecular Devices, UK) to monitor cell fluorescence (λex=488 nm, λEM=540 nm) in the manner described in Sullivan et al., (In: Lambert DG (ed.), Calcium Signaling Protocols, New Jersey: Humana Press, 1999, 125-136) before and after the addition of 10 μl histamine at a concentration that results in the final assay concentration of histamine being EC80. Functional antagonism is indicated by a suppression of histamine induced increase in fluorescence, as measured by the FLIPR™ system (Molecular Devices). By means of concentration effect curves, functional affinities are determined using standard pharmacological mathematical analysis.

T1 sequence (Q9Y5N1 whole entry, species assumed): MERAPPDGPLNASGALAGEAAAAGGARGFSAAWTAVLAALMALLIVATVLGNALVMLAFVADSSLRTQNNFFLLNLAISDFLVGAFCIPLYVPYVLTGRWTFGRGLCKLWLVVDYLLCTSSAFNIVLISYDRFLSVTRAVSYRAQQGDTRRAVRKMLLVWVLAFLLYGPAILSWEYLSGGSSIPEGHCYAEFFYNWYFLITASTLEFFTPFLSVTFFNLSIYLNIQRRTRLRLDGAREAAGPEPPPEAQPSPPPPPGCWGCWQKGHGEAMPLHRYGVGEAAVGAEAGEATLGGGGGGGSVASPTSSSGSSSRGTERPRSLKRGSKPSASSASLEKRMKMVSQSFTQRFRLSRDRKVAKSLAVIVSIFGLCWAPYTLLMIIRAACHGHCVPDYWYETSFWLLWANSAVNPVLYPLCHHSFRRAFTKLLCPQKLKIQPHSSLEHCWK
T2 sequence (P35367 whole entry): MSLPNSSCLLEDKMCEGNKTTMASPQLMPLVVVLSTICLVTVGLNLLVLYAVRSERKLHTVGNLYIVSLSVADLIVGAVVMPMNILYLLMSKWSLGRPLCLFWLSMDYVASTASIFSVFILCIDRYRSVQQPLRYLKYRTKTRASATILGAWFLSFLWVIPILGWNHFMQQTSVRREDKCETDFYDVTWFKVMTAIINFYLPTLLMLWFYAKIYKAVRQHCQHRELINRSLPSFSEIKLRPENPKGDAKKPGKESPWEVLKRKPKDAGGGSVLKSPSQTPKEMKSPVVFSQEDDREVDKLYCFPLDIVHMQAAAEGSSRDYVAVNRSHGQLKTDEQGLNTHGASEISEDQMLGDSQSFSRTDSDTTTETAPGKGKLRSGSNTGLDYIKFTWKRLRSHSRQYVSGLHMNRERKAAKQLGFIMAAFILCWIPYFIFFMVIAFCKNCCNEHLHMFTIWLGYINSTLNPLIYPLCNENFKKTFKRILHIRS

| SMILES | Ki (histamine H3 receptor) [nM] | Ki (human H1 receptor) [nM] |
| --- | --- | --- |
| CCCCc1cc(OC2CCN(CCCNC(=O)C(C)(C)C)CC2)c2ncccc2c1 [Example 69, N-(3-{4-[(6-butyl-8-quinolinyl)oxy]-1-piperidinyl}propyl)-2,2-dimethyl propanamide] | > 316 | < 10 |
| CCCCc1cc(OC2CCN(CC(=O)N3CCCCC3)CC2)c2ncccc2c1 [Example 13, 6-butyl-8-({1-[2-oxo-2-(1-piperidinyl)ethyl]-4-piperidinyl}oxy) quinoline] | > 3160 | < 100 |
| CCCCc1cc(OC2CCN(CCCCCNC(=O)C3CCCCC3)CC2)c2ncccc2c1 [Example 78, N-(5-{4-[(6-butyl-8-quinolinyl)oxy]-1-piperidinyl}pentyl) cyclohexane carboxamide] | > 316 | < 10 |
| CCCCc1cc(OC2CCN(CCCNC(=O)C(C)C)CC2)c2ncccc2c1 [Example 68, N-(3-{4-[(6-butyl-8-quinolinyl)oxy]-1-piperidinyl}propyl)-2-methyl propanamide] | > 316 | < 10 |
| CCCCc1cc(OC2CCN(CCCCNC(=O)C(C)(C)C)CC2)c2ncccc2c1 [Example 67, N-(4-{4-[(6-butyl-8-quinolinyl)oxy]-1-piperidinyl}butyl)-2,2-dimethyl propanamide] | > 316 | < 10 |
| CCCCc1cc(OC2CCN(CC3CCCNC3=O)CC2)c2ncccc2c1 (centres unmarked) [Example 5, 3-({4-[(6-butyl-8-quinolinyl)oxy]-1-piperidinyl}methyl)-2-piperidinone] | > 316 | < 10 |
| CCCCc1cc(OC2CCN(C[C@H]3CC[C@H](C(=O)N4CCOCC4)CC3)CC2)c2ncccc2c1 [Example 63, 6-butyl-8-[(1-{[trans-4-(4-morpholinylcarbonyl)cyclohexyl]methyl}-4-piperidinyl)oxy]quinoline] | > 316 | < 100 |
| CCCCc1cc(OC2CCN(CCCCC(=O)NCCCOC)CC2)c2ncccc2c1 [Example 26, 5-{4-[(6-butyl-8-quinolinyl)oxy]-1-piperidinyl}-N-[3-(methyloxy)propyl]pent-anamide] | > 3160 | < 100 |
| CCCCc1cc(OC2CCN(CCCNC(=O)CCC)CC2)c2ncccc2c1 [Example 70, N-(3-{4-[(6-butyl-8-quinolinyl)oxy]-1-piperidinyl}propyl) butanamide] | > 316 | < 10 |
| CCCCc1cc(OC2CCN(CCC3CCN(C(C)=O)CC3)CC2)c2ncccc2c1 [Example 3, 8-({1-[2-(1-Acetyl-4-piperidinyl)ethyl]-4-piperidinyl}oxy)-6-butylquinoline] | > 316 | < 100 |
| CCCCc1cc(OC2CCN(CCCC(=O)NCCCOC)CC2)c2ncccc2c1 [Example 21, 4-{4-[(6-butyl-8-quinolinyl)oxy]-1-piperidinyl}-N-[3-(methyloxy)propyl] butanamide] | > 3160 | < 10 |
| CCCCc1cc(OC2CCN(CC(=O)NCCOC)CC2)c2ncccc2c1 [Example 11, 2-{4-[(6-butyl-8-quinolinyl)oxy]-1-piperidinyl}-N-[2-(methyloxy)ethyl] acetamide] | > 3160 | < 100 |
| CCCCc1cc(OC2CCN(C[C@H]3CC[C@H](C(=O)N4CCCC4)CC3)CC2)c2ncccc2c1 [Example 62, 6-butyl-8-[(1-{[trans-4-(1-pyrrolidinylcarbonyl)cyclohexyl]methyl}-4-piperidinyl)oxy]quinoline] | > 316 | < 10 |
| CCCCc1cc(O[C@@H]2CCN(CCCC(=O)N3CCCCC3)C2)c2ncccc2c1 [Example 34, 6-butyl-8-({(3R)-1-[4-oxo-4-(1-piperidinyl)butyl]-3-pyrrolidinyl}oxy)quinoline] | > 316 | < 10 |
| CCCCc1cc(OC2CCN(CCNC(=O)CCCOC)CC2)c2ncccc2c1 [Example 81, N-(2-{4-[(6-butyl-8-quinolinyl)oxy]-1-piperidinyl}ethyl)-4-(methyloxy) butanamide] | > 316 | < 10 |
| CCCCc1cc(OC2CCN(CCC(=O)NCCCOC)CC2)c2ncccc2c1 [Example 16, 3-{4-[(6-butyl-8-quinolinyl)oxy]-1-piperidinyl}-N-[3-(methyloxy)propyl] propanamide] | > 3160 | < 10 |
| CCCCCCc1cc(OC2CCN(C[C@H]3CC[C@H](C(=O)NCCCOC)CC3)CC2)c2ncccc2c1 [Example 58, trans-4-({4-[(6-hexyl-8-quinolinyl)oxy]-1-piperidinyl}methyl)-N-[3-(methyloxy)propyl]cyclohexane carboxamide] | > 316 | < 100 |
| CCCCc1cc(OC2CCN(CCCCC(=O)N3CCCCC3)CC2)c2ncccc2c1 [Example 31, 6-butyl-8-({1-[5-oxo-5-(1-piperidinyl)pentyl]-4-piperidinyl}oxy) quinoline] | > 3160 | < 10 |
| CCCCCCc1cc(OC2CCN(C[C@H]3CC[C@H](C(=O)NC(C)C)CC3)CC2)c2ncccc2c1 [Example 56, trans-4-({4-[(6-hexyl-8-quinolinyl)oxy]-1-piperidinyl}methyl)-N-(1-methylethyl) cyclohexane carboxamide] | > 316 | < 10 |
| CCCCc1cc(OC2CCN(CCCNC(=O)CCCOC)CC2)c2ncccc2c1 [Example 83, N-(3-{4-[(6-butyl-8-quinolinyl)oxy]-1-piperidinyl}propyl)-4-(methyloxy) butanamide] | > 316 | < 100 |
| CCCCc1cc(OC2CCN(CCCC(=O)NCCOC)CC2)c2ncccc2c1 [Example 23, 4-{4-[(6-butyl-8-quinolinyl)oxy]-1-piperidinyl}-N-[2-(methyloxy)ethyl] butanamide] | > 3160 | < 10 |
| CCCCc1cc(OC2CCN(CCC(=O)N3CCCCC3)CC2)c2ncccc2c1 [Example 18, 6-butyl-8-({1-[3-oxo-3-(1-piperidinyl)propyl]-4-piperidinyl}oxy) quinoline] | > 316 | < 10 |
